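Results reflect a 48-hour exposure of cells in 96-well plates to compound at five concentrations. GI50 marks 50% less growth. TGI marks complete inhibition of growth.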
These compounds were tested on NCI-H23 lung (assay: NCI tumour cell line growth inhibition, 48 h).
With N#CCN1C(=O)c2cccc3cc([N+](=O)[O-])cc(c23)C1=O the TGI was greater than 100 µM. O=C1CCN2C(=O)CCN12 showed a TGI greater than 100 µM. In the case of Cc1ccc(C(=O)CN(/C=C/C(=O)C(F)(F)F)c2ccc(S(N)(=O)=O)cc2)cc1, the GI50 was 37.2 µM and the TGI was greater than 100 µM. With Clc1nc(Cl)c(Cl)c(-c2ccccc2)n1 the TGI was 35 µM. CC1CC[C@]2(C(=O)O)CCC3(C)C(=CC(=O)C4[C@@]5(C)CCC(=O)C(C)(C)C5CC[C@]43C)[C@@H]2[C@H]1C (stereo partly drawn) showed a TGI of 79.3 µM. CC(C)C(Nc1c2ccccc2nc2ccccc12)C(=O)O (stereo not drawn) was tested, and the TGI was greater than 100 µM. COc1cc2c(cc1OC)C(CC(=O)NN=C(C)C)NCC2 (stereo not drawn) was tested, and the TGI was greater than 100 µM. COC(=O)/C(=N\Nc1nnc(C)n1N)C(C#N)c1ccc(Cl)cc1 (stereo not drawn) was tested, and the TGI was greater than 100 µM. Cc1cccc(NC(=O)C(=O)C(C(=O)c2ccc3ccccc3c2)C2OC(=O)c3ccccc32)c1C (stereo not drawn) showed a TGI of 59.1 µM. CS/C(N)=N\NC(=O)CCC(=O)Nc1ccccc1C(F)(F)F gave a TGI greater than 100 µM. CC(C)(C)c1ccc2c(c1)S(=O)(=O)Nc1ccccc1NS(=O)(=O)c1cc(C(C)(C)C)ccc1OCCOCCOCCO2 gave a TGI greater than 100 µM. Work on COc1cc(/C=C/c2cc(/C=C/c3ccc(O)c(OC)c3)n(C(=O)Nc3ccc(F)c(Cl)c3)n2)ccc1O yielded a GI50 of 0.147 µM and a TGI of 1.46 µM. CC(=O)[O-].CCN(CC)c1ccc(C=NCCN=Cc2ccc(N(CC)CC)cc2[O-])c([O-])c1.[Mn+3] gave a GI50 of 19.7 µM and a TGI of 37.6 µM. Clc1ccc(C2=Nn3c(COc4ccccc4Cl)nnc3SC2)c(Cl)c1 was tested, and the GI50 was 15.5 µM and the TGI was 39.6 µM. With COc1cc2c3c(n(CCCNC(=O)OCC4c5ccccc5-c5ccccc54)c(=O)c2cc1OC)-c1cc2c(cc1/C3=C\CCNC(=O)OCC1c3ccccc3-c3ccccc31)OCO2 the GI50 was 0.921 µM and the TGI was 9.54 µM. Compound NC(N)=N/N=C(\c1nc2ccc([N+](=O)[O-])cc2[nH]c1=O)C(O)c1ccc([N+](=O)[O-])cc1 (stereo not drawn) has a TGI greater than 100 µM. CCC[CH2][Sn]1([CH2]CCC)[O]CC(CN2CCCC2)[O]1 (stereo not drawn) was tested, and the GI50 was 11.6 µM and the TGI was 27.7 µM. For CC1(C)C(=O)N(CCCCCCN2C(=O)C(C)(C)c3ccccc32)c2ccccc21, the TGI was greater than 100 µM. In the case of NCCCCN(CCCN)/[N+]([O-])=N\O, the TGI was greater than 100 µM. With CCOc1ccccc1NC(=O)CC(C(=O)OC)C(=O)C(=O)OC (stereo not drawn) the TGI was greater than 100 µM. C[C@@]12CC=C3c4nc(Nc5cccc(O)c5)sc4CC[C@]3(C)[C@H]1CC[C@]1(C)C(=O)CC[C@@H]21 showed a GI50 of 2.74 µM and a TGI of 12.3 µM. Work on CN1C(=O)c2cccc3cc([N+](=O)[O-])cc(c23)C1=O yielded a TGI greater than 10 µM. Compound COC(=O)C1=C(C)N(NC(=O)OC(C)(C)C)C(=O)C1=P(c1ccccc1)(c1ccccc1)c1ccccc1 has a TGI greater than 100 µM. O=C1OC(c2ccccc2)=N/C1=C\c1cccc2ccccc12 was tested, and the TGI was greater than 100 µM. c1ccc(CNn2nnc3ccccc32)cc1 was tested, and the TGI was greater than 100 µM.

The compounds below were run on OVCAR-8 ovarian (assay: NCI tumour cell line growth inhibition, 48 h).
Compound Cc1nc(N)sc1C(=O)/C=C\c1ccc2c(c1)OCO2 has a TGI greater than 100 µM. COc1cc(C(C)O)c[n+](CCc2c[nH]c3ccccc23)c1 (stereo not drawn) gave a TGI greater than 100 µM. With CC1(C)SCc2nc3ncccc3n21 the TGI was greater than 100 µM. Cn1c(=O)c(C(c2ccc([N+](=O)[O-])cc2)c2c(O)c3ccccc3n(C)c2=O)cc2ccccc21 (stereo not drawn) gave a TGI greater than 100 µM. With Cc1cn(C2CC(O)C(CO)O2)c(=O)n2nnnc12 (stereo not drawn) the TGI was greater than 100 µM. COc1ccc(C(=O)C(C(=O)CCC(=O)Nc2cccc(Cl)c2)c2ccc(OC)cc2)cc1 (stereo not drawn) showed a TGI greater than 100 µM. For CCOC(=O)C1=C(C)N(NC(=O)Nc2ccccc2)C(=O)C1=P(c1ccccc1)(c1ccccc1)c1ccccc1, the TGI was greater than 100 µM. COc1cc(C=C2C(=O)NC(=O)NC2=O)cc(OC)c1OC was tested, and the TGI was greater than 100 µM. Compound Nn1c(=O)n(Cc2ccccc2)n(-c2ccccc2)c1=O has a TGI greater than 100 µM. For NCC1Nc2ccccc2[C@@H](O)C1O (stereo partly drawn), the TGI was greater than 100 µM. For Cc1cccc(N2CCN(C(=S)c3ccc4c(c3)OCO4)CC2)c1, the GI50 was 1.81 µM and the TGI was greater than 100 µM. With Cc1cc(C(=O)Nc2ncc(Cc3cccc(C(F)(F)F)c3)s2)c2ccccc2n1 the GI50 was 3.49 µM and the TGI was greater than 100 µM. Cc1ccc(C2=C(c3ccccc3)C(Br)(c3ccc(C)cc3)C(c3ccccc3)=C2c2ccc(C)cc2)cc1 was tested, and the TGI was greater than 100 µM. In the case of N#CCN1C(=O)c2cccc3cc([N+](=O)[O-])cc(c23)C1=O, the TGI was greater than 100 µM. In the case of O=C1CCN2C(=O)CCN12, the TGI was greater than 100 µM. With Cc1ccc(C(=O)CN(/C=C/C(=O)C(F)(F)F)c2ccc(S(N)(=O)=O)cc2)cc1 the GI50 was 61.2 µM and the TGI was greater than 100 µM. In the case of Clc1nc(Cl)c(Cl)c(-c2ccccc2)n1, the TGI was greater than 100 µM. Work on CC1CC[C@]2(C(=O)O)CCC3(C)C(=CC(=O)C4[C@@]5(C)CCC(=O)C(C)(C)C5CC[C@]43C)[C@@H]2[C@H]1C (stereo partly drawn) yielded a TGI greater than 100 µM. CC(C)C(Nc1c2ccccc2nc2ccccc12)C(=O)O (stereo not drawn) showed a TGI greater than 100 µM. COc1ccccc1CCc1cc(OC)c(OC)c(OC)c1 was tested, and the TGI was greater than 100 µM. Compound COc1cc2c(cc1OC)C(CC(=O)NN=C(C)C)NCC2 (stereo not drawn) has a TGI greater than 100 µM. With COC(=O)/C(=N\Nc1nnc(C)n1N)C(C#N)c1ccc(Cl)cc1 (stereo not drawn) the TGI was greater than 100 µM. Cc1cccc(NC(=O)C(=O)C(C(=O)c2ccc3ccccc3c2)C2OC(=O)c3ccccc32)c1C (stereo not drawn) gave a TGI of 71.8 µM. Work on CS/C(N)=N\NC(=O)CCC(=O)Nc1ccccc1C(F)(F)F yielded a TGI greater than 100 µM. In the case of CC(C)(C)c1ccc2c(c1)S(=O)(=O)Nc1ccccc1NS(=O)(=O)c1cc(C(C)(C)C)ccc1OCCOCCOCCO2, the TGI was greater than 100 µM. COc1cc(/C=C/c2cc(/C=C/c3ccc(O)c(OC)c3)n(C(=O)Nc3ccc(F)c(Cl)c3)n2)ccc1O showed a GI50 of 0.496 µM and a TGI of 3.09 µM. Work on CC(=O)[O-].CCN(CC)c1ccc(C=NCCN=Cc2ccc(N(CC)CC)cc2[O-])c([O-])c1.[Mn+3] yielded a GI50 of 24.5 µM and a TGI of 57 µM. In the case of Clc1ccc(C2=Nn3c(COc4ccccc4Cl)nnc3SC2)c(Cl)c1, the GI50 was 29.6 µM and the TGI was greater than 100 µM. Work on COc1cc2c3c(n(CCCNC(=O)OCC4c5ccccc5-c5ccccc54)c(=O)c2cc1OC)-c1cc2c(cc1/C3=C\CCNC(=O)OCC1c3ccccc3-c3ccccc31)OCO2 yielded a GI50 greater than 35.3 µM and a TGI greater than 50 µM. NC(N)=N/N=C(\c1nc2ccc([N+](=O)[O-])cc2[nH]c1=O)C(O)c1ccc([N+](=O)[O-])cc1 (stereo not drawn) was tested, and the TGI was greater than 100 µM. CCC[CH2][Sn]1([CH2]CCC)[O]CC(CN2CCCC2)[O]1 (stereo not drawn) showed a GI50 of 14.1 µM and a TGI of 29.4 µM. Compound CC1(C)C(=O)N(CCCCCCN2C(=O)C(C)(C)c3ccccc32)c2ccccc21 has a TGI greater than 100 µM. Work on NCCCCN(CCCN)/[N+]([O-])=N\O yielded a TGI greater than 100 µM. Work on CCOc1ccccc1NC(=O)CC(C(=O)OC)C(=O)C(=O)OC (stereo not drawn) yielded a TGI greater than 100 µM. Compound C[C@@]12CC=C3c4nc(Nc5cccc(O)c5)sc4CC[C@]3(C)[C@H]1CC[C@]1(C)C(=O)CC[C@@H]21 has a GI50 of 3.55 µM and a TGI of 26 µM. Work on CN1C(=O)c2cccc3cc([N+](=O)[O-])cc(c23)C1=O yielded a TGI greater than 10 µM. Work on COC(=O)C1=C(C)N(NC(=O)OC(C)(C)C)C(=O)C1=P(c1ccccc1)(c1ccccc1)c1ccccc1 yielded a TGI greater than 100 µM. With O=C1OC(c2ccccc2)=N/C1=C\c1cccc2ccccc12 the TGI was greater than 100 µM. Cc1cccc(NC(=O)/C(=N\NC(C)(C)C)C2NC(=S)NC2=O)c1C (stereo not drawn) gave a TGI greater than 100 µM. C[C@@H]1CC(=O)C2CCCC1C2=O (stereo partly drawn) showed a TGI greater than 100 µM. Work on c1ccc(CNn2nnc3ccccc32)cc1 yielded a TGI greater than 100 µM.

The compounds below were run on SK-MEL-2 melanoma (assay: NCI tumour cell line growth inhibition, 48 h).
Compound Cc1nc(N)sc1C(=O)/C=C\c1ccc2c(c1)OCO2 has a TGI greater than 100 µM. In the case of COc1cc(C(C)O)c[n+](CCc2c[nH]c3ccccc23)c1 (stereo not drawn), the TGI was greater than 100 µM. For CC1(C)SCc2nc3ncccc3n21, the TGI was greater than 100 µM. Cn1c(=O)c(C(c2ccc([N+](=O)[O-])cc2)c2c(O)c3ccccc3n(C)c2=O)cc2ccccc21 (stereo not drawn) gave a TGI greater than 100 µM. Compound Cc1cn(C2CC(O)C(CO)O2)c(=O)n2nnnc12 (stereo not drawn) has a TGI greater than 100 µM. COc1ccc(C(=O)C(C(=O)CCC(=O)Nc2cccc(Cl)c2)c2ccc(OC)cc2)cc1 (stereo not drawn) showed a TGI greater than 100 µM. CCOC(=O)C1=C(C)N(NC(=O)Nc2ccccc2)C(=O)C1=P(c1ccccc1)(c1ccccc1)c1ccccc1 showed a TGI of 98.3 µM. Work on COc1cc(C=C2C(=O)NC(=O)NC2=O)cc(OC)c1OC yielded a TGI greater than 100 µM. Nn1c(=O)n(Cc2ccccc2)n(-c2ccccc2)c1=O gave a TGI greater than 100 µM. In the case of NCC1Nc2ccccc2[C@@H](O)C1O (stereo partly drawn), the TGI was greater than 100 µM. Work on Cc1cc(C(=O)Nc2ncc(Cc3cccc(C(F)(F)F)c3)s2)c2ccccc2n1 yielded a GI50 of 2.74 µM and a TGI greater than 100 µM. Cc1ccc(C2=C(c3ccccc3)C(Br)(c3ccc(C)cc3)C(c3ccccc3)=C2c2ccc(C)cc2)cc1 gave a TGI greater than 100 µM. N#CCN1C(=O)c2cccc3cc([N+](=O)[O-])cc(c23)C1=O gave a TGI of 22.2 µM. With O=C1CCN2C(=O)CCN12 the TGI was greater than 100 µM. Cc1ccc(C(=O)CN(/C=C/C(=O)C(F)(F)F)c2ccc(S(N)(=O)=O)cc2)cc1 was tested, and the GI50 was greater than 100 µM and the TGI was greater than 100 µM. Clc1nc(Cl)c(Cl)c(-c2ccccc2)n1 showed a TGI of 51.7 µM. CC(C)C(Nc1c2ccccc2nc2ccccc12)C(=O)O (stereo not drawn) gave a TGI greater than 100 µM. COc1cc2c(cc1OC)C(CC(=O)NN=C(C)C)NCC2 (stereo not drawn) gave a TGI greater than 100 µM. COC(=O)/C(=N\Nc1nnc(C)n1N)C(C#N)c1ccc(Cl)cc1 (stereo not drawn) gave a TGI greater than 100 µM.
